Experimental data as given in ChEMBL document CHEMBL2069275, “Phenolic compounds as antiangiogenic CMG2 inhibitors from Costa Rican endophytic fungi” (Bioorg Med Chem Lett, 2012).
Active and inactive are the calls of the source. The calls are words filed in the database; no cut-off is given here.

What was measured:
[1] = system: Anthrax toxin receptor 2 (Homo sapiens), P58335 [R40C]; test: (§1) Inhibition of AF546-tagged CMG2 R40C mutant binding to AF488-tagged PA E733C mutant incubated for 1 to 3 hrs prior to AF488-tagged PA E733C addition measured after 3 to 4 hrs by FRET assay
[2] = system: HMVEC; test: Antiangiogenic activity against human HMVEC at 117 uM after 4 hrs by Diff-Quick staining relative to control; assay type: functional
[3] = Antiproliferative activity against human HMVEC at 117 uM after 24 to 72 hrs by Cyquant-based fluorimetry relative to control
[4] = Antiproliferative activity against human HMVEC at 39 uM after 24 to 72 hrs by Cyquant-based fluorimetry relative to control
[5] = target: Anthrax toxin receptor 2 (Homo sapiens, UniProt P58335, R40C); test: as §1
[6] = system: HMVEC; test: Antiangiogenic activity against human HMVEC at 39 uM after 4 hrs by Diff-Quick staining relative to control; assay type: functional
[7] = Antiproliferative activity against human HMVEC at 52 uM after 24 to 72 hrs by Cyquant-based fluorimetry relative to control
[8] = Antiangiogenic activity against human HMVEC at 52 uM after 4 hrs by Diff-Quick staining relative to control; assay type: functional
[9] = Antiangiogenic activity against human HMVEC at 156 uM after 4 hrs by Diff-Quick staining relative to control; assay type: functional
[10] = Antiproliferative activity against human HMVEC at 156 uM after 24 to 72 hrs by Cyquant-based fluorimetry relative to control

Sequence of Anthrax toxin receptor 2 (Homo sapiens), P58335 [R40C] (P58335 whole entry R40C): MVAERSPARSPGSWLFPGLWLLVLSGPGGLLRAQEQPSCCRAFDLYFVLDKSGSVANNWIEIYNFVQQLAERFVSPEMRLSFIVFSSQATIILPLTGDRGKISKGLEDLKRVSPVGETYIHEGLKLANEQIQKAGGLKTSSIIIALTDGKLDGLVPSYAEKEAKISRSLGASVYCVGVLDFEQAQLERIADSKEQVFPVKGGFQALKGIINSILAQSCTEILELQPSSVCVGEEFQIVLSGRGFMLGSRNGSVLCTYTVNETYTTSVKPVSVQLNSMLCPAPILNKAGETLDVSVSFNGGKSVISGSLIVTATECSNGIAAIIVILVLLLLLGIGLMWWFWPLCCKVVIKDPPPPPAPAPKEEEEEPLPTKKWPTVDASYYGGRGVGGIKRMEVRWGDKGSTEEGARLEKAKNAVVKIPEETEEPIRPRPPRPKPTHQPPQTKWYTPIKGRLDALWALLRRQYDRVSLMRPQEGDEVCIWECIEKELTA
Sequence of Anthrax toxin receptor 2 (P58335 whole entry R40C): as above

Structure (SMILES): COc1cccc2c1c(OC)cc1cc(C)c(=O)oc12
- inhibition [1]: inactive

Structure (SMILES): COc1cccc2c1c(O)cc1cc(C)c(=O)oc12
- Activity [2]: inactive
- Activity [3]: Toxic
- Activity [4]: Toxic
- IC50 [5]: 500 nM
- Activity [6]: inactive

Structure (SMILES): Cc1cc2cc(O)cc(O)c2c(=O)o1
- Activity [7]: Non-toxic
- Activity [8]: 96%
- Activity [9]: 93.1%
- Activity [10]: Non-toxic
